# Data published in US20050182124A1, “Ester bacteriostat for stabilizing cosmetics” (VAMA FARMACOSMETICA S.r.l., priority 2004, published 2005).
# Like-named read-outs stand apart in the source and are kept apart here.
# Experiments:
# Staphylococcus aureus = experiment: MIC (Minimal Inhibition Concentration) test on bacterial colonies; assay type: cell-based; settings: read-out: MIC (Minimal Inhibition Concentration)
# Description: (§1) With the purpose of evaluating the bacteriostatic activity of the bacteriostats of the invention, the following MIC (Minimal Inhibition Concentration) tests were carried out on bacterial colonies of “Pseudomonas aeruginosa” (Pa) and of “Staphylococcus aureus” (Sa), respectively with pure phenoxyethanol of formula (IV) and with phenoxyethanol ester of PCA of formula (V) of the invention.
# Pseudomonas aeruginosa = experiment: as above; assay type: cell-based; settings: read-out: MIC (Minimal Inhibition Concentration)
# Description: as §1
# skin = experiment: Patch test (finn chamber) for skin compatibility: primary irritation and allergic response; assay type: in vivo, human; settings: 25 healthy volunteers; about 20 μg solid product on the back, finn chamber 48 hours; read 15 mins, 1 hr and 24 hrs after removal
# Description: The skin compatibility of the bacteriostat according to the invention, in terms of anergic response and of primary Irritation. was tested with the following patch tests.
# A panel of 25 healthy volunteers was subjected to the application onto the back of about 20 μg of solid product with the use of a “finn chamber” (patch test). After 48 hours the “finn chamber” was removed and the skin reactions after 15 mins, 1 hr and 24 hrs from removal were clinically evaluated.
MIC (Staphylococcus aureus; Staphylococcus aureus (Sa)) [µg/mL],MIC (Pseudomonas aeruginosa; Pseudomonas aeruginosa (Pa)) [µg/mL],Compound,skin irritation (primary irritation) in patch test (skin),skin sensitization in patch test (skin),MIC (Staphylococcus aureus; Staphylococcus aureus) [µg/mL],MIC (Pseudomonas aeruginosa; Pseudomonas aeruginosa) [µg/mL]
1000,1000,"O=C1CCC(C(=O)OCCOc2ccccc2)N1 (stereo not shown) [PCA Ester, phenoxyethanol ester of PCA]",not to be irritating,did not sensitize the skin,,
,,"OCCOc1ccccc1 [phenoxyethanol, 2-phenoxyethanol, reference compound]",moderately irritating,,6400,3200
